The record followed here is patent publication US10308643B2, “Heterocyclic compound” (Takeda Pharmaceutical Company Limited, priority 2015, dated 2019).

Holding throughout (assay type): biochemical
For assay [1], the target named is T1, HDAC9 enzyme (Homo sapiens, UniProt Q9UKV0).
T1 construct: transducing full length HDAC9 gene into Sf-9 insect cells; made in house; host or cells: Sf-9 insect cells
Briefly: HDAC9 Enzyme Inhibitory Assay (HDAC-Glo class IIa). As to conditions: 1 μM test compound, wells without enzyme = 100% inhibition; for inhibition at 1 µM: read-out: HDAC9 inhibitory rate (%) (1 μM). The procedure: HDAC9 Enzyme Inhibitory Assay
Enzyme was prepared by transducing full length HDAC9 gene into Sf-9 insect cells and purifying by Ni-NTA affinity column, and HDAC9 enzyme inhibitory activity was evaluated. Enzymes were used after preserved at −70° C. HDAC9 enzyme inhibitory activity of the test compound was measured using HDAC-Glo class IIa (Promega) according to the following experimental method. The test compound diluted with assay buffer (24 mM Tris-HCl (pH 7.5), 1 mM MgCl2, 0.35 mM KCl, 135 mM NaCl, 0.6 mM Glutathione, 0.01% Tween-20) was added to a 384-well plate by each 2 μL. Then, HDAC9 enzyme solution diluted with assay buffer was added thereto by each 2 μL, and the plate was incubated at room temperature for 60 min. After incubated, HDAC substrate-Developer solution prepared according to Promega protocol was added to the 384-well plate by each 4 μL, and the enzyme reaction was started. After reacting at room temperature for 20 min, luminescence level was measured using plate reader Envision (PerkinElmer). The inhibitory activity of each compound was calculated as a relative activity value when luminescence level in wells without enzyme is considered as 100% inhibition.

Assay [2] addresses T2, HDAC6 enzyme (Homo sapiens, UniProt Q9UBN7).
T2 construct: transducing full length HDAC1 and HDAC6 genes into Sf-9 insect cells; GST; purchased SignalChem; host or cells: Sf-9 insect cells
T2 sequence (Q9UBN7 1-1215): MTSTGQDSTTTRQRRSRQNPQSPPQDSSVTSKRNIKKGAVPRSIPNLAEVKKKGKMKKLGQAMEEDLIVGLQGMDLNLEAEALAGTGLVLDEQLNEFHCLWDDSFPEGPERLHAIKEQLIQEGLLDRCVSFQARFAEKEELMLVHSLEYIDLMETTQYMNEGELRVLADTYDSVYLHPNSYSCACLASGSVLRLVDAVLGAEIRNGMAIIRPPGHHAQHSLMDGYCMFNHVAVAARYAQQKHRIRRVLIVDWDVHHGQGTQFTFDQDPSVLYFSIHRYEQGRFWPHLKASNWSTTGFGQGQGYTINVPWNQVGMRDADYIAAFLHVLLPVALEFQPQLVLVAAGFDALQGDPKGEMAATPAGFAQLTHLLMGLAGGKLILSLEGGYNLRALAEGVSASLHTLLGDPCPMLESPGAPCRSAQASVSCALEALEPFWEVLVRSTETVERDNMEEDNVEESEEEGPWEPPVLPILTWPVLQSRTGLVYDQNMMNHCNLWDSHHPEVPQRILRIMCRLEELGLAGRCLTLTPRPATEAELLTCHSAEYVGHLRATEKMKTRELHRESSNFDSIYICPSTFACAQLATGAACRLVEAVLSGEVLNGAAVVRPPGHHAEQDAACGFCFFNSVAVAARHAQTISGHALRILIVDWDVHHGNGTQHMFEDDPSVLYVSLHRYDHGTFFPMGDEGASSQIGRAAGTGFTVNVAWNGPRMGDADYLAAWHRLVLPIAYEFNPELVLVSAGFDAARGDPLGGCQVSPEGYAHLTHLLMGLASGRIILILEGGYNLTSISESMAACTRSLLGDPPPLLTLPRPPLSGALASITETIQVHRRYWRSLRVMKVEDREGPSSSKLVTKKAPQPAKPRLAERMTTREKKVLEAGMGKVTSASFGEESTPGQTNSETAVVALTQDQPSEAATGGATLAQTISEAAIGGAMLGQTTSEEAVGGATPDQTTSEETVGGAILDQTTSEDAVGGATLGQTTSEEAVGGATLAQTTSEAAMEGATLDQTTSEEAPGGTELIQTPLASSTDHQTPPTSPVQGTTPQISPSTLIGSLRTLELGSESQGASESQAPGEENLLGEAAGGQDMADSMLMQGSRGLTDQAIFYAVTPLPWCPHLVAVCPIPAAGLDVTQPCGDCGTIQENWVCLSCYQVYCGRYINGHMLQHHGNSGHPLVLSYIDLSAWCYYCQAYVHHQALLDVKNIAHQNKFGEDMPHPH
Briefly: HDAC1/6 Enzyme Inhibitory Assay (HDAC-Glo I/II Assay kit), HDAC6. The conditions noted are these: 1 μM test compound, wells without enzyme = 100% inhibition; for inhibition at 1 µM: read-out: HDAC6 inhibitory rate (%) (1 μM). Here is the method:
(§1) HDAC1/6 Enzyme Inhibitory Assay
(§2) HDAC1 enzyme and HDAC6 enzyme each prepared by transducing full length HDAC1 and HDAC6 genes into Sf-9 insect cells and purifying by GST affinity column were purchased from SignalChem. Using these enzymes, HDAC1 and/or HDAC6 enzyme inhibitory activities of the compound of the present invention were evaluated. Enzymes were used after preserved at −70° C. HDAC1 or HDAC6 enzyme inhibitory activity of the compound of the present invention was measured using HDAC-Glo™ I/II Assay kit (Promega) according to the following experimental method. The test compound diluted with assay buffer (24 mM Tris-HCl (pH 7.5), 1 mM MgCl2, 0.35 mM KCl, 135 mM NaCl, 0.6 mM Glutathione, 0.01% Tween-20) was added to a 384-well plate by each 2 μL. Then, HDAC1 or HDAC6 enzyme solution diluted with assay buffer was added thereto by each 4 μL, and the plate was incubated at room temperature for 60 min. After incubated, HDAC substrate-Developer solution prepared according to Promega protocol attached to the assay kit was added to the 384-well plate by each 2 μL, and the enzyme reaction was started. After reacting at room temperature for 20 min, luminescence level was measured using plate reader Envision (PerkinElmer). The inhibitory activity of each compound was calculated as a relative activity value when luminescence level in wells without enzyme is considered as 100% inhibition.

Assay [3] deals with T3, HDAC1 enzyme (Homo sapiens, UniProt Q13547).
T3 construct: transducing full length HDAC1 and HDAC6 genes into Sf-9 insect cells; GST; purchased SignalChem; host or cells: Sf-9 insect cells
T3 sequence (Q13547 whole entry): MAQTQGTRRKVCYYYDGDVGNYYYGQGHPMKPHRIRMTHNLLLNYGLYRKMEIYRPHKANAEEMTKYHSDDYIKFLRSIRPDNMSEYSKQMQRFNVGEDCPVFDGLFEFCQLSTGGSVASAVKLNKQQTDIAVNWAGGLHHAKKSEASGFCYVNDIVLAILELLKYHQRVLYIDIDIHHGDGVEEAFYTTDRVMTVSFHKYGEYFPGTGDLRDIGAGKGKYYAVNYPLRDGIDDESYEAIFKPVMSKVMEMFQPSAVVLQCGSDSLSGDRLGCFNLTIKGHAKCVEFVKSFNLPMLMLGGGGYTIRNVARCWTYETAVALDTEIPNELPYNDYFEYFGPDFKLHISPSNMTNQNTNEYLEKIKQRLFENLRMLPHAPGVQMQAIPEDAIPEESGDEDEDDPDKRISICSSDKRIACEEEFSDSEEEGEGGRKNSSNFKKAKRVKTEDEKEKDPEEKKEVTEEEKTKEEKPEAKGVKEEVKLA
Briefly: HDAC1/6 Enzyme Inhibitory Assay (HDAC-Glo I/II Assay kit), HDAC1. The conditions noted are these: 1 μM test compound, wells without enzyme = 100% inhibition; for inhibition at 1 µM: read-out: HDAC1 inhibitory rate (%) (1 μM). The procedure:
as §1, §2

T1 sequence (Q9UKV0 whole entry, species assumed): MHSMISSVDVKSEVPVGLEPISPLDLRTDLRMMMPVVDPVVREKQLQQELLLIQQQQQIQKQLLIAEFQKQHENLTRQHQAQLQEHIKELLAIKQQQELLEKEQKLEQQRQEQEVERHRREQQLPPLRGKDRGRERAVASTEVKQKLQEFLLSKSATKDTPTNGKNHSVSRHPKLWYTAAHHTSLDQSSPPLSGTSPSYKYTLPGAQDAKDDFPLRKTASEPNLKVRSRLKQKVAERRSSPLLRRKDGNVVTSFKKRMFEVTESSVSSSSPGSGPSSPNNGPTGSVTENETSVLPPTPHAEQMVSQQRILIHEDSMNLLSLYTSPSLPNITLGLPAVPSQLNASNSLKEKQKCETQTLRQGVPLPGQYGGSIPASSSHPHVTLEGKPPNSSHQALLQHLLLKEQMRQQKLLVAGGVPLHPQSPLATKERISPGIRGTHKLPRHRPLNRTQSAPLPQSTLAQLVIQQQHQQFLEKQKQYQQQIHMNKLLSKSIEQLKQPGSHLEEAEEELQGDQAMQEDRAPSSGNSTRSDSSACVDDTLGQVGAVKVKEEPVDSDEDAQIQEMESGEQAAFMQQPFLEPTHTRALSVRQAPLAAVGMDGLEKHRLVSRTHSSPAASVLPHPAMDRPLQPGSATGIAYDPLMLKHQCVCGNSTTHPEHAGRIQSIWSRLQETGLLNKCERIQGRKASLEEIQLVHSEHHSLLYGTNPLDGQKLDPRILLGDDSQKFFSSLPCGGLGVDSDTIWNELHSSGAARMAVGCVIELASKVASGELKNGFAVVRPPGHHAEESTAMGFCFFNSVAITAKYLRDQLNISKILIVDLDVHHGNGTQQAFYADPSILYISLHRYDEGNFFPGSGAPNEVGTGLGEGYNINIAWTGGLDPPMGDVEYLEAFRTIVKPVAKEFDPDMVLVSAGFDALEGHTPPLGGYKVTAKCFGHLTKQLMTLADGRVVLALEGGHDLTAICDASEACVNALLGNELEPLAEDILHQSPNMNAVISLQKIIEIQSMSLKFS

In the case of `CC1(C(=O)N[C@@H]2COCC[C@H]2N2Cc3ccc(-c4noc(C(F)(F)F)n4)cc3C2=O)COC1` [Example 83, 3-methyl-N-((3S,4R)-4-(1-oxo-6-(5-(trifluoromethyl)-1,2,4-oxadiazol-3-yl)-1,3-dihydro-2H-isoindol-2-yl)tetrahydro-2H-pyran-3-yl)oxetane-3-carboxamide], the figures for the inhibition at 1 µM in assay [1], in assay [2] and in assay [3] were 52%, 101% and 5%, respectively.

With `CC(=O)N1CC[C@@H](c2ccccc2)[C@H](N2Cc3cc(-c4noc(C(F)(F)F)n4)ccc3C2=O)C1` (relative stereo) [Example 73, trans-2-(1-acetyl-4-phenylpiperidin-3-yl)-5-(5-(trifluoromethyl)-1,2,4-oxadiazol-3-yl)isoindolin-1-one], the inhibition at 1 µM in assay [1] turned out to be 81%; in assay [2], 77%; in assay [3], 19%.

With `O=C(N[C@@H]1CCCC[C@H]1N1Cc2ccc(-c3noc(C(F)(F)F)n3)cc2C1=O)C1COC1` [Example 127, N-((1R,2R)-2-(1-oxo-6-(5-(trifluoromethyl)-1,2,4-oxadiazol-3-yl)-1,3-dihydro-2H-isoindol-2-yl)cyclohexyl)oxetane-3-carboxamide], the inhibition at 1 µM was found to be 47% in assay [1], 99% in assay [2] and 5% in assay [3].

Consider `CC(C)(C)OC(=O)N[C@@H]1CCCC[C@H]1N1Cc2ccc(-c3noc(C(F)(F)F)n3)cc2C1=O` [Example 26, tert-butyl ((1R,2R)-2-(1-oxo-6-(5-(trifluoromethyl)-1,2,4-oxadiazol-3-yl)-1,3-dihydro-2H-isoindol-2-yl)cyclohexyl)carbamate], for which the inhibition at 1 µM came to 47% in assay [1], 98% in assay [2] and 11% in assay [3].

In the case of `O=C(N[C@H]1CCOC[C@@H]1N1Cc2ccc(-c3noc(C(F)(F)F)n3)cc2C1=O)[C@H]1CCOC1` [Example 210, (3S)-N-((3R,4S)-3-(1-oxo-6-(5-(trifluoromethyl)-1,2,4-oxadiazol-3-yl)-1,3-dihydro-2H-isoindol-2-yl)tetrahydro-2H-pyran-4-yl)tetrahydrofuran-3-carboxamide], the inhibition at 1 µM in assay [1] was determined as 56%; in assay [2] it was 55%; in assay [3], 10%.

Consider `O=C1c2cc(-c3noc(C(F)(F)F)n3)ccc2CN1[C@@H]1CCc2ccccc21` [Example 25, 2-((1R)-2,3-dihydro-1H-inden-1-yl)-6-(5-(trifluoromethyl)-1,2,4-oxadiazol-3-yl)isoindolin-1-one], for which the inhibition at 1 µM in assay [1] amounted to 39%; in assay [2], 92%; in assay [3], 7%.

For the compound `O=C(N[C@H]1CCOC[C@H]1N1Cc2ccc(-c3noc(C(F)(F)F)n3)cc2C1=O)C1CC1(F)F` (single isomer, unassigned) [Example 213, (1R) or (1S)-2,2-difluoro-N-((3S,4S)-3-(1-oxo-6-(5-(trifluoromethyl)-1,2,4-oxadiazol-3-yl)-1,3-dihydro-2H-isoindol-2-yl)tetrahydro-2H-pyran-4-yl)cyclopropanecarboxamide], the inhibition at 1 µM in assay [1] came to 77%; in assay [2] it was 96%. Further, in assay [3], the “HDAC1 inhibitory rate (%) (1 μM)” value is given as 31%.

For the compound `CC(C)(C)OC(=O)N[C@@H]1CCC[C@H]1N1Cc2ccc(-c3noc(C(F)(F)F)n3)cc2C1=O` [Example 140, tert-butyl ((1R,2R)-2-(1-oxo-6-(5-(trifluoromethyl)-1,2,4-oxadiazol-3-yl)-1,3-dihydro-2H-isoindol-2-yl)cyclopentyl)carbamate], the inhibition at 1 µM in assay [1] was determined as 41%; in assay [2], 39%; in assay [3], 27%.

As for `CC1(C(=O)N[C@@H]2CCCC[C@H]2N2Cc3ccc(-c4noc(C(F)(F)F)n4)cc3C2=O)CC1(F)F` (stereo partly drawn) [Example 170, 2,2-difluoro-1-methyl-N-((1R,2R)-2-(1-oxo-6-(5-(trifluoromethyl)-1,2,4-oxadiazol-3-yl)-1,3-dihydro-2H-isoindol-2-yl)cyclohexyl) cyclopropanecarboxamide], in assay [1], the “HDAC9 inhibitory rate (%) (1 μM)” value was 64%. In addition, the “HDAC6 inhibitory rate (%) (1 μM)” value in assay [2] (1 µM) was 100%. In addition, the “HDAC1 inhibitory rate (%) (1 μM)” value in assay [3] was 16%.

With `O=C(N[C@@H]1CCCC[C@H]1N1Cc2ccc(-c3noc(C(F)(F)F)n3)cc2C1=O)C1CCC1` [Example 97, N-((1R,2R)-2-(1-oxo-6-(5-(trifluoromethyl)-1,2,4-oxadiazol-3-yl)-1,3-dihydro-2H-isoindol-2-yl)cyclohexyl) cyclobutanecarboxamide], the inhibition at 1 µM in assay [1] is 59%; in assay [2] it was 99%; in assay [3], 14%.

In the case of `O=C1c2cc(-c3noc(C(F)(F)F)n3)ccc2CN1[C@@H]1CCOC[C@H]1c1ccccc1` (relative stereo) [Example 35, trans-2-(3-phenyltetrahydro-2H-pyran-4-yl)-6-(5-(trifluoromethyl)-1,2,4-oxadiazol-3-yl)isoindolin-1-one], in assay [1], the “HDAC9 inhibitory rate (%) (1 μM)” value worked out at 91%. Further, the “HDAC6 inhibitory rate (%) (1 μM)” value in assay [2] turned out to be 99%. Further, in assay [3], the “HDAC1 inhibitory rate (%) (1 μM)” value is listed as 50%.

With `O=C(N[C@@H]1CCOC[C@H]1N1Cc2ccc(-c3noc(C(F)(F)F)n3)cc2C1=O)[C@@H]1CCOC1` [Example 206, (3R)-N-((3S,4R)-3-(1-oxo-6-(5-(trifluoromethyl)-1,2,4-oxadiazol-3-yl)-1,3-dihydro-2H-isoindol-2-yl)tetrahydro-2H-pyran-4-yl)tetrahydrofuran-3-carboxamide], the inhibition at 1 µM in assay [1] came out at 52%; in assay [2], 97%; in assay [3], 5%.

For the compound `O=C(N[C@@H]1CCCC[C@H]1N1Cc2ccc(-c3noc(C(F)(F)F)n3)cc2C1=O)N1CC2CCC(C1)O2` [Example 146, N-((1R,2R)-2-(1-oxo-6-(5-(trifluoromethyl)-1,2,4-oxadiazol-3-yl)-1,3-dihydro-2H-isoindol-2-yl)cyclohexyl)-8-oxa-3-azabicyclo[3.2.1]octane-3-carboxamide], the values for the inhibition at 1 µM in assay [1], in assay [2] and in assay [3] were 23%, 99% and 2%, respectively.
